{"source": "patent US20100022509A1", "about": "“Inhibitors of MshC and Homologs Thereof, and Methods of Identifying Same” (priority 2006, published 2010)", "biological_target": "T1, MshC (Mycobacterium tuberculosis, UniProt P9WJM9)", "T1 sequence (P9WJM9 1-414)": "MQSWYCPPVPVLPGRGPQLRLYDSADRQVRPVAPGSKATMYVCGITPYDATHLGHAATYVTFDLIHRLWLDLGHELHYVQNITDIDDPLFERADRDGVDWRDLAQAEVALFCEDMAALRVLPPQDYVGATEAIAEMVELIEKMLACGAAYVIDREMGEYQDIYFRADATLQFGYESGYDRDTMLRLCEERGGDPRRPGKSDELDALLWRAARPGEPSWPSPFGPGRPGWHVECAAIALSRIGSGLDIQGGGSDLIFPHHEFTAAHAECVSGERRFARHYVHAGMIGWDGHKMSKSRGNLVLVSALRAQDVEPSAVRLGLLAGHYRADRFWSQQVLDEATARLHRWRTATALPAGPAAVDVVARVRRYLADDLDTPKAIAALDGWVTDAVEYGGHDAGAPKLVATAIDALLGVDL", "experiment": "biochemical", "format": "biochemical, M. tuberculosis", "note": "Read-outs that look alike come from different tables or passages of the source.", "data": [{"smiles": "Cc1ccc(C)c(CN2C(=O)c3ccccc3S(=O)(=O)c3ccc(C(=O)NCCCSC4CCCCC4)cc32)c1", "note": "[Inhibitor 83-47]", "values": [{"measurement": "inhibition of MshC in words, compounds lacking the basic amino group or with groups in excess of 10 carbons on the remote amino residue", "value": "little or no inhibition"}, {"measurement": "IC50", "value": "> 3000", "unit": "µM"}]}, {"smiles": "CCC1CCCCN1CCCNC(=O)c1ccc2c(c1)N(Cc1ccccc1)C(=O)c1ccccc1S2(=O)=O", "note": "(centres unmarked) [Inhibitor 83-48]", "values": [{"measurement": "IC50", "value": "≥ 500", "unit": "µM"}]}, {"smiles": "CC1CC(C)CN(CCCNC(=O)c2ccc3c(c2)N(Cc2ccccc2)C(=O)c2ccccc2S3(=O)=O)C1", "note": "(centres unmarked) [Inhibitor 83-49]", "values": [{"measurement": "IC50", "value": "~2000", "unit": "µM"}]}, {"smiles": "CCN1CCN(CCCNC(=O)c2ccc3c(c2)N(Cc2ccccc2)C(=O)c2ccccc2S3(=O)=O)CC1", "note": "[Inhibitor 83-50]", "values": [{"measurement": "IC50", "value": "> 3000", "unit": "µM"}]}, {"smiles": "CC1CCCN(CCCNC(=O)c2ccc3c(c2)N(Cc2ccccc2)C(=O)c2ccccc2S3(=O)=O)C1", "note": "(centres unmarked) [Inhibitor 83-51]", "values": [{"measurement": "IC50", "value": "1700 ± 400", "unit": "µM"}]}, {"smiles": "O=C(NCCCN1CCN(Cc2ccccc2)CC1)c1ccc2c(c1)N(Cc1ccccc1)C(=O)c1ccccc1S2(=O)=O", "note": "[Inhibitor 83-52]", "values": [{"measurement": "inhibition of MshC in words, compounds lacking the basic amino group or with groups in excess of 10 carbons on the remote amino residue", "value": "little or no inhibition"}, {"measurement": "IC50", "value": "2500 ± 1200", "unit": "µM"}]}, {"smiles": "CC(C)CN(CCCNC(=O)c1ccc2c(c1)N(Cc1ccccc1)C(=O)c1ccccc1S2(=O)=O)CC(C)C", "note": "[Inhibitor 83-53]", "values": [{"measurement": "IC50", "value": "> 3000", "unit": "µM"}]}, {"smiles": "CN(CCNC(=O)c1ccc2c(c1)N(Cc1ccccc1)C(=O)c1ccccc1S2(=O)=O)C1CCCCC1", "note": "[Inhibitor 83-54]", "values": [{"measurement": "inhibition of MshC in words, 1,3-diaminopropyl residue with remote amino residue capable of protonation", "value": "measurable inhibition"}, {"measurement": "inhibition of MshC in words, Z benzyl moiety with methyl groups in the 2,5 positions or unsubstituted", "value": "Weak but detectable inhibition"}, {"measurement": "IC50", "value": "510 ± 80", "unit": "µM"}, {"measurement": "inhibition of MshC in words, compounds grouped by X", "setting": "X=S, X=SO, X=SO2", "value": "Significant inhibition"}]}, {"smiles": "O=C(NCCCSC1CCCCC1)c1ccc2c(c1)N(Cc1ccccc1)C(=O)c1ccccc1S2(=O)=O", "note": "[Inhibitor 83-55]", "values": [{"measurement": "inhibition of MshC in words, compounds lacking the basic amino group or with groups in excess of 10 carbons on the remote amino residue", "value": "little or no inhibition"}, {"measurement": "IC50", "value": "> 3000", "unit": "µM"}]}, {"smiles": "O=C(NCCN1CCN(Cc2ccccc2)CC1)c1ccc2c(c1)N(Cc1cccc(Cl)c1)C(=O)c1ccccc1[S+]2[O-]", "note": "(centres unmarked) [Inhibitor 83-56]", "values": [{"measurement": "inhibition of MshC in words, compounds lacking the basic amino group or with groups in excess of 10 carbons on the remote amino residue", "value": "little or no inhibition"}, {"measurement": "IC50", "value": "> 3000", "unit": "µM"}]}, {"smiles": "CC1CCCN(CCCNC(=O)c2ccc3c(c2)N(Cc2cccc(Cl)c2)C(=O)c2ccccc2S3(=O)=O)C1", "note": "(centres unmarked) [Inhibitor 83-57]", "values": [{"measurement": "IC50", "value": "~1000", "unit": "µM"}]}, {"smiles": "O=C(NCCCC1CCCCCC1)c1ccc2c(c1)N(Cc1cccc(Cl)c1)C(=O)c1ccccc1S2(=O)=O", "note": "[Inhibitor 83-58]", "values": [{"measurement": "inhibition of MshC in words, Z is a benzyl moiety bearing one or more halogens", "value": "Measurable inhibition"}, {"measurement": "IC50", "value": "≥ 500", "unit": "µM"}]}, {"smiles": "CN(CCCNC(=O)c1ccc2c(c1)N(Cc1cccc(Cl)c1)C(=O)c1ccccc1S2(=O)=O)c1ccccc1", "note": "[Inhibitor 83-59]", "values": [{"measurement": "IC50", "value": "> 3000", "unit": "µM"}]}, {"smiles": "CCCCN(C)CCCNC(=O)c1ccc2c(c1)N(Cc1cccc(Cl)c1)C(=O)c1ccccc1[S+]2[O-]", "note": "(centres unmarked) [Inhibitor 83-60]", "values": [{"measurement": "inhibition of MshC in words, compounds grouped by X", "setting": "X=S, X=SO, X=SO2", "value": "Significant inhibition"}]}, {"smiles": "O=C(NCCCSC1CCCCC1)c1ccc2c(c1)N(Cc1cccc(Cl)c1)C(=O)c1ccccc1[S+]2[O-]", "note": "(centres unmarked) [Inhibitor 83-61]", "values": [{"measurement": "inhibition of MshC in words, compounds lacking the basic amino group or with groups in excess of 10 carbons on the remote amino residue", "value": "little or no inhibition"}, {"measurement": "IC50", "value": "~1000", "unit": "µM"}]}, {"smiles": "O=C(NCCN1CCN(Cc2ccccc2)CC1)c1ccc2c(c1)N(Cc1cccc(Cl)c1)C(=O)c1ccccc1[S+]2[O-]", "note": "(centres unmarked) [Inhibitor 83-62]", "values": [{"measurement": "inhibition of MshC in words, compounds lacking the basic amino group or with groups in excess of 10 carbons on the remote amino residue", "value": "little or no inhibition"}, {"measurement": "IC50", "value": "2100 ± 900", "unit": "µM"}]}, {"smiles": "CN(CCCNC(=O)c1ccc2c(c1)N(Cc1cccc(Cl)c1)C(=O)c1ccccc1[S+]2[O-])c1ccccc1", "note": "(centres unmarked) [Inhibitor 83-63]", "values": [{"measurement": "IC50", "value": "> 2000", "unit": "µM"}]}, {"smiles": "CC1CCCN(CCCNC(=O)c2ccc3c(c2)N(Cc2cccc(Cl)c2)C(=O)c2ccccc2[S+]3[O-])C1", "note": "(centres unmarked) [Inhibitor 83-64]", "values": [{"measurement": "inhibition of MshC in words, 1,3-diaminopropyl residue with remote amino residue capable of protonation", "value": "measurable inhibition"}, {"measurement": "inhibition of MshC in words, Z is a benzyl moiety bearing one or more halogens", "value": "Measurable inhibition"}, {"measurement": "IC50", "value": "150 ± 30", "unit": "µM"}, {"measurement": "inhibition of MshC in words, compounds grouped by X", "setting": "X=S, X=SO, X=SO2", "value": "Significant inhibition"}]}, {"smiles": "CC1CC(C)CN(CCCNC(=O)c2ccc3c(c2)N(Cc2cccc(Cl)c2)C(=O)c2ccccc2[S+]3[O-])C1", "note": "(centres unmarked) [Inhibitor 83-65]", "values": [{"measurement": "inhibition of MshC in words, 1,3-diaminopropyl residue with remote amino residue capable of protonation", "value": "measurable inhibition"}, {"measurement": "inhibition of MshC in words, Z is a benzyl moiety bearing one or more halogens", "value": "Measurable inhibition"}, {"measurement": "inhibition of MshC in words, compounds grouped by X", "setting": "X=S, X=SO, X=SO2", "value": "Significant inhibition"}]}, {"smiles": "CCC1CCCN(CCCNC(=O)c2ccc3c(c2)N(Cc2cccc(Cl)c2)C(=O)c2ccccc2[S+]3[O-])C1", "note": "(centres unmarked) [Inhibitor 83-66]", "values": [{"measurement": "inhibition of MshC in words, 1,3-diaminopropyl residue with remote amino residue capable of protonation", "value": "measurable inhibition"}, {"measurement": "inhibition of MshC in words, Z is a benzyl moiety bearing one or more halogens", "value": "Measurable inhibition"}, {"measurement": "IC50", "value": "80 ± 20", "unit": "µM"}, {"measurement": "inhibition of MshC in words, compounds grouped by X", "setting": "X=S, X=SO, X=SO2", "value": "Significant inhibition"}]}, {"smiles": "CC(C)CN(CCCNC(=O)c1ccc2c(c1)N(Cc1cccc(Cl)c1)C(=O)c1ccccc1[S+]2[O-])CC(C)C", "note": "(centres unmarked) [Inhibitor 83-67]", "values": [{"measurement": "IC50", "value": "~3000", "unit": "µM"}]}, {"smiles": "O=C(NC1CCN(Cc2ccccc2)CC1)c1ccc2c(c1)N(Cc1cccc(Cl)c1)C(=O)c1ccccc1[S+]2[O-]", "note": "(centres unmarked) [Inhibitor 83-68]", "values": [{"measurement": "IC50", "value": "1500 ± 500", "unit": "µM"}]}, {"smiles": "O=C(NCCN1CCN(Cc2ccccc2)CC1)c1ccc2c(c1)N(Cc1cccc(Cl)c1)C(=O)c1ccccc1[S+]2[O-]", "note": "(centres unmarked) [Inhibitor 83-69]", "values": [{"measurement": "inhibition of MshC in words, compounds lacking the basic amino group or with groups in excess of 10 carbons on the remote amino residue", "value": "little or no inhibition"}, {"measurement": "IC50", "value": "2500 ± 700", "unit": "µM"}]}, {"smiles": "O=C(NCCCN1CCOCC1)c1ccc2c(c1)N(Cc1cccc(Cl)c1)C(=O)c1ccccc1[S+]2[O-]", "note": "(centres unmarked) [Inhibitor 83-70]", "values": [{"measurement": "inhibition of MshC in words, 1,3-diaminopropyl residue with remote amino residue capable of protonation", "value": "measurable inhibition"}, {"measurement": "inhibition of MshC in words, Z is a benzyl moiety bearing one or more halogens", "value": "Measurable inhibition"}, {"measurement": "inhibition of MshC in words, compounds grouped by X", "value": "Significant inhibition"}, {"measurement": "IC50", "value": "470 ± 130", "unit": "µM"}]}, {"smiles": "O=C(NCCCN1CCCC1)c1ccc2c(c1)N(Cc1cccc(Cl)c1)C(=O)c1ccccc1[S+]2[O-]", "note": "(centres unmarked) [Inhibitor 83-72]", "values": [{"measurement": "inhibition of MshC in words, 1,3-diaminopropyl residue with remote amino residue capable of protonation", "value": "measurable inhibition"}, {"measurement": "inhibition of MshC in words, Z is a benzyl moiety bearing one or more halogens", "value": "Measurable inhibition"}, {"measurement": "IC50", "value": "97 ± 26", "unit": "µM"}, {"measurement": "inhibition of MshC in words, compounds grouped by X", "setting": "X=S, X=SO, X=SO2", "value": "Significant inhibition"}]}, {"smiles": "CCCN(CCC)CCCNC(=O)c1ccc2c(c1)N(Cc1cccc(Cl)c1)C(=O)c1ccccc1[S+]2[O-]", "note": "(centres unmarked) [Inhibitor 83-73]", "values": [{"measurement": "inhibition of MshC in words, 1,3-diaminopropyl residue with remote amino residue capable of protonation", "value": "measurable inhibition"}, {"measurement": "inhibition of MshC in words, Z is a benzyl moiety bearing one or more halogens", "value": "Measurable inhibition"}, {"measurement": "IC50", "value": "~200", "unit": "µM"}, {"measurement": "inhibition of MshC in words, compounds grouped by X", "setting": "X=S, X=SO, X=SO2", "value": "Significant inhibition"}]}, {"smiles": "CCCCSCCCNC(=O)c1ccc2c(c1)N(Cc1cccc(Cl)c1)C(=O)c1ccccc1[S+]2[O-]", "note": "(centres unmarked) [Inhibitor 83-74]", "values": [{"measurement": "inhibition of MshC in words, compounds lacking the basic amino group or with groups in excess of 10 carbons on the remote amino residue", "value": "little or no inhibition"}, {"measurement": "IC50", "value": "> 3000", "unit": "µM"}]}]}
